Data from US7192906B2, “Substituted pyrazole derivatives, production process thereof, and herbicide compositions containing the derivatives” (SDS Biotech K.K., priority 2001, dated 2007).

Tests used:
Assay type in all cases: in vivo
Chenopodium album [1] = assay: Test Example 1 upland field foliage treatment; details: Table 4, upland field foliage treatment, index 0-5
How it was run: (§1)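 Scored 0–5 (0: under 10%, 5: 90% or more effect or phytotoxicity) on day 21 after treatment; plants sown in upland soil received a leaf-surface spray 14 days post-sowing of diluted wettable powder delivering 1 kg active ingredient/ha.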

Digitaria adscendens [2] = assay: Test Example 1 upland field foliage treatment; details: Table 4, upland field foliage treatment, index 0-5
How it was run: as §1

Setaria viridis [3] = assay: Test Example 1 upland field foliage treatment; details: Table 4, upland field foliage treatment, index 0-5
How it was run: as §1

Stellaria media [4] = assay: Test Example 1 upland field foliage treatment; details: Table 4, upland field foliage treatment, index 0-5
How it was run: as §1

soybean (Glycine max) [5] = assay: Test Example 1 upland field foliage treatment, crop phytotoxicity; details: Table 4, upland field foliage treatment, index 0-5
How it was run: as §1

[6] = tested on: wheat (Triticum aestivum); assay: as above; details: Table 4, upland field foliage treatment, index 0-5
How it was run: as §1

Chenopodium album [7] = assay: Test Example 2 upland soil treatment; details: Table 5, upland soil treatment, index 0-5
How it was run: (§2)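 Pre-emergence soil treatment: seeds sown in upland soil in pots and covered with about 1 cm soil. Next day, a water-diluted wettable powder was sprayed evenly on the soil surface at 1 kg active ingredient per hectare. Weed control or crop injury was scored 0–5 (10% to ≥90% bands) 21 days later.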

Digitaria adscendens [8] = assay: Test Example 2 upland soil treatment; details: Table 5, upland soil treatment, index 0-5
How it was run: as §2

Setaria viridis [9] = assay: Test Example 2 upland soil treatment; details: Table 5, upland soil treatment, index 0-5
How it was run: as §2

Stellaria media [10] = assay: Test Example 2 upland soil treatment; details: Table 5, upland soil treatment, index 0-5
How it was run: as §2

soybean (Glycine max) [11] = assay: Test Example 2 upland soil treatment, crop phytotoxicity; details: Table 5, upland soil treatment, index 0-5
How it was run: as §2

[12] = tested on: wheat (Triticum aestivum); assay: as above; details: Table 5, upland soil treatment, index 0-5
How it was run: as §2

Ammannia multiflora = assay: Test Example 3 paddy field treatment; details: active ingredient 1 kg per hectare, index 0-5
How it was run: (§3)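 Scoring used a 0–5 scale of herbicidal effect or phytotoxicity, from <10% to ≥90%, taken 21 days after treatment. Treatment was 1 kg a.i./ha as diluted wettable powder dripped onto 4 cm-deep flooded pots sown with the weeds, 10 days after transplanting two-leaf Koshihikari rice.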

Echinochloa crusgalli = assay: Test Example 3 paddy field treatment; details: active ingredient 1 kg per hectare, index 0-5
How it was run: as §3

Monochoria vaginalis = assay: Test Example 3 paddy field treatment; details: active ingredient 1 kg per hectare, index 0-5
How it was run: as §3

Scirpus juncoides = assay: Test Example 3 paddy field treatment; details: active ingredient 1 kg per hectare, index 0-5
How it was run: as §3

Rice (Oryza sativa) = assay: Test Example 3 paddy field treatment, crop phytotoxicity; details: active ingredient 1 kg per hectare, index 0-5
How it was run: as §3

[13] = Table 6, paddy field treatment, 21st day after dropping
[14] = paddy field treatment, wettable powder, 21st day after the dropping

Row | Compound | Herbicidal activity CA: Chenopodium album (Chenopodium album [1]) | Herbicidal activity DA: Digitaria adscendens (Digitaria adscendens [2]) | Herbicidal activity SV: Setaria viridis (Setaria viridis [3]) | Herbicidal activity SM: Stellaria media (Stellaria media [4]) | Herbicidal activity (phytotoxicity) GM: Soybean (Glycine max) (soybean (Glycine max) [5]) | Herbicidal activity (phytotoxicity) TA: Wheat (Triticum aestivum) [6] | Herbicidal activity CA: Chenopodium album (Chenopodium album [7]) | Herbicidal activity DA: Digitaria adscendens (Digitaria adscendens [8]) | Herbicidal activity SV: Setaria viridis (Setaria viridis [9]) | Herbicidal activity SM: Stellaria media (Stellaria media [10]) | Herbicidal activity (phytotoxicity) GM: Soybean (Glycine max) (soybean (Glycine max) [11]) | Herbicidal activity (phytotoxicity) TA: Wheat (Triticum aestivum) [12] | also measured
1 | CNC(=O)C(Cn1cc(C)c(-c2ccc(F)c(F)c2)n1)=NOC [Compound 59] | 5 (herbicidal effect of not less than 90%, or phytotoxicity of 90% or more) | 5 (herbicidal effect of not less than 90%, or phytotoxicity of 90% or more) | 5 (herbicidal effect of not less than 90%, or phytotoxicity of 90% or more) | 5 (herbicidal effect of not less than 90%, or phytotoxicity of 90% or more) | 0 (herbicidal effect of not less than 0% and less than 10%, or phytotoxicity of 0% or more and less than 10%) | 0 (herbicidal effect of not less than 0% and less than 10%, or phytotoxicity of 0% or more and less than 10%) | 5 (herbicidal effect of not less than 90%, or phytotoxicity of 90% or more) | 5 (herbicidal effect of not less than 90%, or phytotoxicity of 90% or more) | 5 (herbicidal effect of not less than 90%, or phytotoxicity of 90% or more) | 5 (herbicidal effect of not less than 90%, or phytotoxicity of 90% or more) | 0 (herbicidal effect of not less than 0% and less than 10%, or phytotoxicity of 0% or more and less than 10%) | 0 (herbicidal effect of not less than 0% and less than 10%, or phytotoxicity of 0% or more and less than 10%) | Herbicidal activity AM (Ammannia multiflora; [13]): 5 (herbicidal effect of not less than 90%, or phytotoxicity of 90% or more); Herbicidal activity EC (Echinochloa crusgalli; [13]): 5 (herbicidal effect of not less than 90%, or phytotoxicity of 90% or more); Herbicidal activity MV (Monochoria vaginalis; [13]): 5 (herbicidal effect of not less than 90%, or phytotoxicity of 90% or more); Herbicidal activity SJ (Scirpus juncoides; [13]): 5 (herbicidal effect of not less than 90%, or phytotoxicity of 90% or more); Herbicidal activity (phytotoxicity) OS (Rice (Oryza sativa); Table 6, paddy field treatment, transplanted rice, 21st day after dropping): 0 (herbicidal effect of not less than 0% and less than 10%, or phytotoxicity of 0% or more and less than 10%)
2 | CNC(=O)C(Cn1cc(C)c(-c2ccc(Cl)cc2)n1)=NOC [Compound 47] | 5 (herbicidal effect of not less than 90%, or phytotoxicity of 90% or more) | 5 (herbicidal effect of not less than 90%, or phytotoxicity of 90% or more) | 5 (herbicidal effect of not less than 90%, or phytotoxicity of 90% or more) | 5 (herbicidal effect of not less than 90%, or phytotoxicity of 90% or more) | 0 (herbicidal effect of not less than 0% and less than 10%, or phytotoxicity of 0% or more and less than 10%) | 0 (herbicidal effect of not less than 0% and less than 10%, or phytotoxicity of 0% or more and less than 10%) | 5 (herbicidal effect of not less than 90%, or phytotoxicity of 90% or more) | 5 (herbicidal effect of not less than 90%, or phytotoxicity of 90% or more) | 5 (herbicidal effect of not less than 90%, or phytotoxicity of 90% or more) | 5 (herbicidal effect of not less than 90%, or phytotoxicity of 90% or more) | 0 (herbicidal effect of not less than 0% and less than 10%, or phytotoxicity of 0% or more and less than 10%) | 0 (herbicidal effect of not less than 0% and less than 10%, or phytotoxicity of 0% or more and less than 10%) | Herbicidal activity AM (Ammannia multiflora; [14]): 5 (herbicidal effect of not less than 90%, or phytotoxicity of 90% or more); Herbicidal activity EC (Echinochloa crusgalli; [14]): 5 (herbicidal effect of not less than 90%, or phytotoxicity of 90% or more); Herbicidal activity MV (Monochoria vaginalis; [14]): 5 (herbicidal effect of not less than 90%, or phytotoxicity of 90% or more); Herbicidal activity SJ (Scirpus juncoides; [14]): 5 (herbicidal effect of not less than 90%, or phytotoxicity of 90% or more); Herbicidal activity OS (phytotoxicity to rice) (Rice (Oryza sativa); paddy field treatment, transplanted rice Koshihikari, wettable powder, 21st day after the dropping): 0 (herbicidal effect of not less than 0% and less than 10%, or phytotoxicity of 0% or more and less than 10%)
